Measurements as given in PubChem BioAssay AID1996.
Converted amounts (≈) assume the structure as drawn.

Details: buffer; pH 7.4; 200.0 µM

| Compound | solubility kinetic |
| --- | --- |
| COc1ccc(C(=O)O)cc1S(=O)(=O)NCc1ccncc1 | > 48.4 µg/mL |
| CN(C)CCNc1ncnc2sc(-c3ccccc3)cc12 | 39.7 µg/mL (≈ 133 µM) |
| COc1ccc(C(=O)OCC(=O)NCc2cccs2)c(OC)c1OC | > 54.8 µg/mL |
| COc1ccccc1N(CC1CO1)S(=O)(=O)c1ccccc1 (centres undefined) | > 47.9 µg/mL |
| O=C1/C(=C/c2ccncc2)N2CCC1CC2 | > 32.1 µg/mL |
| Cc1ccccc1NC(=O)NCCCN1CCCC1=O | > 41.3 µg/mL |
| COc1ccccc1NC(=O)COC(=O)C1C2CC3OC(=O)C1C3C2 (centres undefined) | > 51.8 µg/mL |
| O=c1[nH]cccc1-c1nc2ccccc2n1Cc1ccccc1F | 3.9 µg/mL (≈ 12.2 µM) |
| CC(=O)c1ccc(NC(=O)NC2CCCc3ccccc32)cc1 (centres undefined) | 4.9 µg/mL (≈ 15.9 µM) |
| COc1cc(C2NC(=S)NC(c3ccccc3)=C2C(C)=O)ccc1O (centres undefined) | 43.8 µg/mL (≈ 124 µM) |
| CCc1noc(C)c1C(=O)OCC(=O)c1ccc(NC(C)=O)cc1F | 9.1 µg/mL (≈ 26.1 µM) |
| COC(=O)c1cc(NC(=O)CN(C)C2CCS(=O)(=O)C2)cc(C(=O)OC)c1.O=C(O)C(=O)O (centres undefined) | > 73.3 µg/mL |
| CCCCn1c(=O)c(C(=O)Nc2ccccc2C)c(O)c2ccccc21 | < 0.4 µg/mL |
| COc1ccccc1-c1c(C)nn2c(N3CCOCC3)cc(C)nc12 | > 50.8 µg/mL |
| O=S(=O)(/N=C(/Nc1cccnc1Cl)c1ccccc1)c1ccccc1 | > 55.8 µg/mL |
| CCOc1ccccc1Nc1nnc(SCC(=O)NCC2CCCO2)s1 (centres undefined) | > 59.2 µg/mL |
| CN1CC(C(=O)c2ccc(F)cc2)C(c2ccc(F)cc2)C1 (centres undefined) | > 45.2 µg/mL |
| C=CCC1(N(C(C)=O)c2ccccc2C)CCCCC1 | 6.7 µg/mL (≈ 24.7 µM) |
| Cl.OC(CNCc1cccnc1)COc1ccc2ccccc2c1 (centres undefined) | 43.5 µg/mL |
| c1ccc2oc(-c3csc(N4CCOCC4)n3)cc2c1 | 4.7 µg/mL (≈ 16.4 µM) |
| O=C(NCc1ccco1)Nc1ccc(OC(F)(F)F)cc1 | 11.1 µg/mL (≈ 37 µM) |
| CC[N+](C)(C)Cc1ccccc1Br.Cc1ccc(S(=O)(=O)[O-])cc1 | > 62.2 µg/mL |
| Cc1cc(C)c(C)c(OCCn2ccnc2)c1 | 31.4 µg/mL (≈ 136 µM) |
| CS(=O)(=O)c1ccc(C(=O)NCC2(N3CCOCC3)CCCCC2)cc1 | > 57.1 µg/mL |

| Compound | solubility kinetic |
| --- | --- |
| CC(C)CCNc1nc(N)c([N+](=O)[O-])c(N2CCCCCC2)n1 | 0.5 µg/mL (≈ 1.55 µM) |
| O=C(NN1CCOCC1)c1ccc(F)cc1 | > 33.6 µg/mL |
| COc1ccc(NC(=O)O/N=C/c2ccncc2)cc1 | > 40.7 µg/mL |
| COc1ccc(OCCCC(=O)Nc2nccs2)cc1 | > 43.9 µg/mL |
| Fc1ccc(OCc2nc(-c3cccs3)no2)cc1 | 0.8 µg/mL (≈ 2.9 µM) |
| COC(=O)COc1cccc2c(=O)n(CC(=O)N3CCC(C)CC3)ccc12 | > 55.9 µg/mL |
| Cc1ccc(C(=O)NC(=S)N(C)C2CCCCC2)cc1 | 9.9 µg/mL (≈ 34.1 µM) |
| O=C1C2C3C=CC(C3)C2C(=O)N1c1ccc2ccccc2c1 (centres undefined) | 12.3 µg/mL (≈ 42.5 µM) |
| Cc1ccc2c(c1)N(CC(=O)N1CCCCC1)C(=O)C(C)O2 (centres undefined) | > 45.4 µg/mL |
| O=C(NC(=S)Nc1ccc(F)c(Cl)c1)C1CC1 | 2.3 µg/mL (≈ 8.43 µM) |
| O=C(NCc1csc(-c2ccccc2)n1)c1cc(F)cc2c1OCOC2 | 5.7 µg/mL (≈ 15.4 µM) |
| COCCn1c(C)cc(C(=O)COC(=O)CNC(=O)c2ccco2)c1C | 45.2 µg/mL (≈ 125 µM) |
| CCOC(=O)C1=C(C)OC(N)=C(C#N)C1c1ccc(C)s1 (centres undefined) | 13.2 µg/mL (≈ 43.4 µM) |
| CCCCc1c(O)nc(SCC(=O)N2CCCCCC2)[nH]c1=O | 48.9 µg/mL (≈ 144 µM) |
| CC1CC(C)CN(C(=O)COC(=O)COc2ccccc2C#N)C1 (centres undefined) | > 49.6 µg/mL |
| CSc1ccc(NC(=O)NCc2cccnc2)cc1 | > 41 µg/mL |
| O=C(NCc1ccccn1)c1cccc(S(=O)(=O)N2CCc3ccccc32)c1 | 21 µg/mL (≈ 53.4 µM) |
| COC(=O)c1ccc(N=CC2=C(O)CC(c3ccccc3)CC2=O)cc1 (centres undefined) | 2.1 µg/mL (≈ 6.01 µM) |
| COc1ccc(C(=O)Nc2ccc3nc(C)c(C)nc3c2)cc1 | 5.3 µg/mL (≈ 17.2 µM) |
| O=C(CNC(=O)c1ccco1)OCc1ccc(Br)cc1 | 40.5 µg/mL (≈ 120 µM) |
| Cc1cccc(NC(=S)Nc2cccc3ccccc23)c1 | 3.8 µg/mL (≈ 13 µM) |
| N/C(=N\[N+](=O)[O-])N1CCN(C(=O)c2ccccc2)CC1 | > 41.6 µg/mL |
| CN(C)Cc1cc2ccccc2c2c1COC2 | 31.5 µg/mL (≈ 139 µM) |
| CC1CC(NC2=NCCS2)CC(C)(C)C1 (centres undefined) | 24.6 µg/mL (≈ 109 µM) |

| Compound | solubility kinetic |
| --- | --- |
| COC(=O)c1cc(S(=O)(=O)N2CCCC2=O)c(Cl)cc1Cl | > 52.8 µg/mL |
| CC(=O)c1ccc(S(=O)(=O)N2CCN(C)CC2)cc1 | > 42.4 µg/mL |
| CC1CCCC(NC(=O)C2COc3ccccc3O2)C1C (centres undefined) | 17.2 µg/mL (≈ 59.4 µM) |
| COc1cc(C(=S)N2CCCC2)ccc1OCC(N)=O | > 44.2 µg/mL |
| CCCC(=O)N=c1sc2c(OC)ccc(OC)c2n1C | < 0.3 µg/mL |
| Nn1c(SCC(=O)NC2CCS(=O)(=O)C2)nnc1-c1ccco1 (centres undefined) | > 53.6 µg/mL |
| O=C(Nc1nc2ccsc2c(=O)s1)c1ccco1 | 7.3 µg/mL (≈ 26.2 µM) |
| CCOc1ccc(NC(=O)C2CC3CCC2C3)cc1 (centres undefined) | 6.1 µg/mL (≈ 23.5 µM) |
| COc1ccc(S(=O)(=O)n2cnc(C)c2)cc1 | > 37.8 µg/mL |
| O=C(O)CCC(=O)Nc1nc2nccc(-c3ccccc3)n2n1 | > 46.7 µg/mL |
| COCCNC(=S)Nc1ccccn1 | > 31.7 µg/mL |
| CCOc1ccccc1Nc1ccc(C(=O)O)cc1[N+](=O)[O-] | 40.8 µg/mL (≈ 135 µM) |
| CC1CC1C(=O)Nc1cc(C(F)(F)F)ccc1N1CCOCC1 (centres undefined) | 40.9 µg/mL (≈ 125 µM) |
| O=C(/C=C/c1ccco1)NCc1ccco1 | > 32.6 µg/mL |
| CC(C)(C)CC(C)(C)NC(=O)/C=C/C(=O)O | 29.1 µg/mL (≈ 128 µM) |
| Cc1ccc(S(=O)(=O)n2cnc3ccccc32)cc1[N+](=O)[O-] | > 47.6 µg/mL |
| NS(=O)(=O)c1ccc(CCNC(=O)c2ccncc2)cc1 | > 45.8 µg/mL |
| COc1cccc(C(=O)c2c(C)c(CCC#N)n3ccccc23)c1 | 43.5 µg/mL (≈ 137 µM) |
| COc1ccc(S(N)(=O)=O)cc1C(=O)OCC(=O)Nc1ncc(Cl)c(C)c1Cl | 24 µg/mL (≈ 53.5 µM) |
| O=C(COC(=O)CCSc1ccc(F)cc1)NCc1ccc(F)cc1 | 26.5 µg/mL (≈ 72.5 µM) |
| CC(C)Oc1ccc(C(CC(=O)N2CCOCC2)C(C)C)cc1 (centres undefined) | > 47.9 µg/mL |
| Cc1ccc(NC(=O)C(=O)NCCCN2CCOCC2)c(C)c1 | > 47.9 µg/mL |
| Nc1nc2ccc(NC(=O)c3ccco3)cc2s1 | > 38.9 µg/mL |
| C[C@H](NC(=O)c1cccc([N+](=O)[O-])c1)C(=O)OCC(=O)c1ccccc1Br | > 65.3 µg/mL |

| Compound | solubility kinetic |
| --- | --- |
| C=CCn1cnc2c(sc3nc(C)cc(C)c32)c1=O | 6.9 µg/mL (≈ 25.4 µM) |
| Cc1cc(C)c(C)c(S(=O)(=O)NC2CCCCC2)c1C | < 0.6 µg/mL |
| Cn1ccsc1=NC(=O)c1ccc(Cl)c([N+](=O)[O-])c1 | 0.5 µg/mL (≈ 1.68 µM) |
| CCC(C(=O)Nc1cc(Cl)c(OC)cc1OC)c1ccccc1 (centres undefined) | < 0.7 µg/mL |
| COc1cc([N+](=O)[O-])ccc1NC(=O)Cc1ccccc1 | 5.5 µg/mL (≈ 19.2 µM) |
| CCOc1ccc(CCNC(=O)CCC(=O)c2cccs2)cc1OCC | > 56.3 µg/mL |
| CON(C)S(=O)(=O)c1cccc(C(=O)N(CC(=O)Nc2ccccc2C(F)(F)F)Cc2ccco2)c1 | 50.2 µg/mL (≈ 95.5 µM) |
| OC(CN1CCN(c2ccccc2F)CC1)c1ccc(F)cc1 (centres undefined) | > 47.8 µg/mL |
| COc1ccc(S(=O)(=O)N2CCOCC2)cc1NC(=O)Cc1ccsc1 | 7.6 µg/mL (≈ 19.2 µM) |
| CC(=O)NC1(C(F)(F)F)C(=O)Nc2c1c(=O)[nH]c(=O)n2CC(C)C (centres undefined) | < 0.2 µg/mL |
| O=C(COC(=O)COc1ccc(Br)cc1)NC1CCCC1 | 13.3 µg/mL (≈ 37.3 µM) |
| CCc1cccc(OCC(=O)Nc2c[nH]c(=O)[nH]c2=O)c1 | 0.9 µg/mL (≈ 3.11 µM) |
| Cc1cc(NC(=O)c2cc3cccc([N+](=O)[O-])c3[nH]2)ccc1F | 0.7 µg/mL (≈ 2.23 µM) |
| O=C(Nc1ccc(N2CCOCC2)cc1)c1c(F)cccc1Cl | 21.3 µg/mL (≈ 63.6 µM) |
| CN(C)c1ccc(-c2nc3ccccc3c(=O)[nH]2)cc1 | 1.9 µg/mL (≈ 7.16 µM) |
| O=C(O)c1c(NC(=O)N2CCOCC2)sc2c1CCCC2 | > 46.6 µg/mL |
| COc1ccc(/C=N/NC(=O)c2ccc[nH]2)cc1 | > 36.5 µg/mL |
| CC1CCc2c(sc(NC(=O)c3cccn3C)c2C(N)=O)C1 (centres undefined) | 2.9 µg/mL (≈ 9.14 µM) |
| Cl.O=C(Nc1ncccc1Cl)c1ccc2c(c1)OCCO2 | 37 µg/mL |
| CCOc1ccc(S(=O)(=O)n2cnc(C)c2)cc1 | 38.5 µg/mL (≈ 145 µM) |
| O=c1[nH]c(O)c(C=Nc2ccc(F)c(Cl)c2)c(=O)[nH]1 | 14 µg/mL (≈ 49.4 µM) |
| CC(C)C(=O)Nc1cccc(-c2nc3ncccc3o2)c1 | 37.5 µg/mL (≈ 133 µM) |
| O=C1C2CCCCN2C(=O)N1CCCCN1CCN(c2cccc(Cl)c2)CC1 (centres undefined) | 54.2 µg/mL (≈ 134 µM) |
| O=C(Nc1ccc([N+](=O)[O-])cc1)Nc1cnccn1 | 2.9 µg/mL (≈ 11.2 µM) |

| Compound | solubility kinetic |
| --- | --- |
| COc1ccc2[nH]c(C(=O)N3CCN(C)CC3)c(C)c2c1 | > 43.1 µg/mL |
| N/C(Cc1ccc([N+](=O)[O-])cc1)=N\OC(=O)C1CCCCC1 | 41.2 µg/mL (≈ 135 µM) |
| CN(C)C(=O)c1ccc(Cl)cc1[N+](=O)[O-] | > 34.3 µg/mL |
| CC(=O)N(C)c1ccc(N=Cc2cc3c(cc2[N+](=O)[O-])OCO3)cc1 | 44.1 µg/mL (≈ 129 µM) |
| O/N=C(/c1ccc(F)cc1)C1CC1c1c(F)cccc1Cl (centres undefined) | 5 µg/mL (≈ 16.2 µM) |
| CCOC(=O)Cc1csc(NC(=O)c2cc3ccccc3o2)n1 | 10.4 µg/mL (≈ 31.5 µM) |
| COc1ccc(CC(C)Nc2cccc(F)c2)cc1 (centres undefined) | 1 µg/mL (≈ 3.86 µM) |
| COc1ccc2[nH]cc(CCNC(C)=O)c2c1 | > 34.8 µg/mL |
| Cn1c(N)nc2nc(CCc3ccccc3)c(=O)[nH]c2c1=O | 9.9 µg/mL (≈ 33.3 µM) |
| CCOc1ccccc1C(=S)NC1CCCCC1 | 14.5 µg/mL (≈ 55 µM) |
| O=C(COC(=O)c1cc(=O)c2ccccc2o1)NCC1CCCCC1 | 33 µg/mL (≈ 96.1 µM) |
| CSc1ccc(/C=C/C(=O)OCC(=O)N(C)CCC#N)cc1 | 29.9 µg/mL (≈ 93.9 µM) |
| Cc1csc2nc(NC(=O)c3ccccc3)sc(=O)c12 | 0.9 µg/mL (≈ 2.98 µM) |
| CSc1ncc(CO)n1Cc1ccccc1 | > 35.1 µg/mL |
| CCOc1nc(C)ccc1-c1noc(-c2cccnc2)n1 | 11 µg/mL (≈ 39 µM) |
| COc1cccc(C(=O)Nc2ccc3[nH]c(=O)[nH]c3c2)c1OC | 27.7 µg/mL (≈ 88.4 µM) |
| CC(=O)c1cccc(NC(=O)NC(C)c2ccc3c(c2)OCO3)c1 (centres undefined) | 6.9 µg/mL (≈ 21.1 µM) |
| O=S(=O)(NCCCCNS(=O)(=O)c1ccc(F)cc1)c1ccc(F)cc1 | 0.7 µg/mL (≈ 1.73 µM) |
| COc1ccccc1Nc1ccc([N+](=O)[O-])cn1 | 8.1 µg/mL (≈ 33 µM) |
| CC(C)(C)Nc1nc(Cl)nc(Nc2ccccc2)n1 | 2.9 µg/mL (≈ 10.4 µM) |
| CC1=C([N+](=O)[O-])C(c2ccccc2)NC(=O)N1 (centres undefined) | > 35 µg/mL |
| Cc1nc(CC(=O)c2ccc(O)c(C)c2O)cs1 | 36.7 µg/mL (≈ 139 µM) |
| COc1ccccc1CC1CC(=O)N(c2ccccc2)C1=O (centres undefined) | > 44.3 µg/mL |
